Tests used:
Type in all cases: in vivo
[1] = test system: ryegrass, Italian (Italian ryegrass, Lolium multiflorum); assay: Test A postemergence
Description: (§1) Seeds of plant species selected from barnyardgrass (Echinochloa crus-galli), Kochia (Kochia scoparia), ragweed (common ragweed, Ambrosia elatior), ryegrass, Italian (Italian ryegrass, Lolium multiflorum), crabgrass, large (Digitaria sanguinalis), giant foxtail (Setaria faberii), green foxtail (Setaria viridis), morningglory (Ipomoea spp.), pigweed (Amaranthus retroflexus), velvetleaf (Abutilon theophrasti), wheat (Triticum aestivum), and corn (Zea mays) were planted into a blend of loam soil and sand and treated preemergence with a directed soil spray using test chemicals formulated in anon-phytotoxic solvent mixture which included a surfactant.
(§2) At the same time, plants selected from these crop and weed species and also blackgrass (Alopecurus myosuroides), and Galium (catchweed bedstraw, Galium aparine) were planted in pots containing the same blend of loam soil and sand and treated with postemergence applications of test chemicals formulated in the same manner. Plants ranged in height from 2 to 10 cm and were in the one- to two-leaf stage for the postemergence treatment. Treated plants and untreated controls were maintained in a greenhouse for approximately 10 d, after which time all treated plants were compared to untreated controls and visually evaluated for injury. Plant response ratings, summarized in Table A, are based on a 0 to 100 scale where 0 is no effect and 100 is complete control. A dash (-) response means no test result.

[2] = test system: giant foxtail (Setaria faberii); assay: Test A postemergence
Description: as §1, §2

[3] = test system: Galium (catchweed bedstraw, Galium aparine); assay: Test A postemergence
Description: as §1, §2

[4] = test system: pigweed (Amaranthus retroflexus); assay: Test A postemergence
Description: as §1, §2

[5] = test system: blackgrass (Alopecurus myosuroides); assay: Test A postemergence; details: for Blackgrass plant response rating: visual injury rating on 0 to 100 scale (0 no effect, 100 complete control), approx. 10 d
Description: as §1, §2

[6] = test system: barnyardgrass (Echinochloa crus-galli); assay: Test A postemergence; details: for Barnyardgrass plant response rating: visual injury rating on 0 to 100 scale (0 no effect, 100 complete control), approx. 10 d
Description: as §1, §2

[7] = test system: wheat (Triticum aestivum); assay: Test A postemergence
Description: as §1, §2

Kochia (Kochia scoparia) [8] = assay: Test A postemergence
Description: as §1, §2

corn (Zea mays) = assay: Test A postemergence
Description: as §1, §2

[9] = test system: ragweed (common ragweed, Ambrosia elatior); assay: Test A postemergence
Description: as §1, §2

[10] = test system: ryegrass, Italian (Italian ryegrass, Lolium multiflorum); assay: Test A preemergence; details: for Plant response rating, Ryegrass, Italian: 125 g ai/ha; for Ryegrass, Italian plant response rating (0 to 100 scale, 0 is no effect, 100 is complete control): 500 g ai/ha, visual injury approx. 10 d
Description: as §1, §2

[11] = test system: giant foxtail (Setaria faberii); assay: Test A preemergence; details: for Plant response rating, Foxtail, Giant: 125 g ai/ha; for Foxtail, Giant plant response rating (0 to 100 scale, 0 is no effect, 100 is complete control): 500 g ai/ha, visual injury approx. 10 d
Description: as §1, §2

[12] = test system: pigweed (Amaranthus retroflexus); assay: Test A preemergence; details: for Plant response rating, Pigweed: 125 g ai/ha; for Pigweed plant response rating (0 to 100 scale, 0 is no effect, 100 is complete control): 500 g ai/ha, visual injury approx. 10 d
Description: as §1, §2

[13] = test system: barnyardgrass (Echinochloa crus-galli); assay: Test A preemergence; details: for Plant response rating, Barnyardgrass: 125 g ai/ha; for Barnyardgrass plant response rating (0 to 100 scale, 0 is no effect, 100 is complete control): 500 g ai/ha, visual injury approx. 10 d
Description: as §1, §2

Kochia (Kochia scoparia) [14] = assay: Test A preemergence; details: for Plant response rating, Kochia: 125 g ai/ha; for Kochia plant response rating (0 to 100 scale, 0 is no effect, 100 is complete control): 500 g ai/ha, visual injury approx. 10 d
Description: as §1, §2

[15] = test system: ragweed (common ragweed, Ambrosia elatior); assay: Test A preemergence; details: for Plant response rating, Ragweed: 125 g ai/ha; for Ragweed plant response rating (0 to 100 scale, 0 is no effect, 100 is complete control): 500 g ai/ha, visual injury approx. 10 d
Description: as §1, §2

[16] = 125 g ai/ha, postemergence, visual rating after approx. 10 d, 0 to 100 scale (0 no effect, 100 complete control)
[17] = Postemergence, 500 g ai/ha, 0 to 100 scale where 0 is no effect and 100 is complete control
[18] = Preemergence, visual injury after approximately 10 d, 0 to 100 scale where 0 is no effect and 100 is complete control
[19] = 125 g ai/ha, postemergence, visual injury rating on 0 to 100 scale (0 no effect, 100 complete control), approx. 10 d
[20] = 500 g ai/ha, postemergence, 0 to 100 scale, 0 no effect, 100 complete control
[21] = preemergence, 0 to 100 scale (0 no effect, 100 complete control)

In the case of `Cc1cc(F)ccc1NC(=O)C1C(=O)N(C)CC1c1cccc(C(F)(F)F)c1` (stereo not drawn) [Compound 575], the “Plant response rating, Ryegrass, Italian” value [1, 16] is reported as 60, the “Plant response rating, Ryegrass, Italian” value [1, 17] is reported as 70 and the “Plant response rating, Foxtail, Giant” value [2, 16] is reported as 90. For the same compound, the “Plant response rating, Foxtail, Giant” value [2, 17] was 90, the “Plant response rating, Galium” value [3, 16] was 50 and the “Plant response rating, Galium” value [3, 17] was 70. For the same compound, the “Plant response rating, Pigweed” value [4, 16] was 0, the “Plant response rating, Pigweed” value [4, 17] was 20 and the “Plant response rating, Blackgrass” value [5, 16] was 70. For the same compound, the “Plant response rating, Blackgrass” value [5, 17] was 80, the “Plant response rating, Barnyardgrass” value [6, 16] was 90 and the “Plant response rating, Barnyardgrass” value [6, 17] was 90. The “Plant response rating, Wheat” value [7, 16] was 40, the “Plant response rating, Wheat” value [7, 17] was 70 and the “Plant response rating, Kochia” value (Kochia (Kochia scoparia) [8]; [16]) was 0. For the same compound, the “Plant response rating, Kochia” value (Kochia (Kochia scoparia) [8]; [17]) was 20, the “Plant response rating, Corn” value (corn (Zea mays); [16]) was 70 and the “Plant response rating, Corn” value (corn (Zea mays); [17]) was 80. For the same compound, the “Plant response rating, Ragweed” value [9, 16] was 0, the “Plant response rating, Ragweed” value [9, 17] was 0 and the “Plant response rating, Ryegrass, Italian” value [10, 18] was 60. The “Ryegrass, Italian plant response rating (0 to 100 scale, 0 is no effect, 100 is complete control)” value ([10]; Preemergence) was 80, the “Plant response rating, Foxtail, Giant” value [11, 18] was 90 and the “Foxtail, Giant plant response rating (0 to 100 scale, 0 is no effect, 100 is complete control)” value ([11]; Preemergence) was 100. For the same compound, the “Plant response rating, Pigweed” value [12, 18] was 0, the “Pigweed plant response rating (0 to 100 scale, 0 is no effect, 100 is complete control)” value ([12]; Preemergence) was 40 and the “Plant response rating, Barnyardgrass” value [13, 18] was 90. For the same compound, the “Barnyardgrass plant response rating (0 to 100 scale, 0 is no effect, 100 is complete control)” value ([13]; Preemergence) was 100, the “Plant response rating, Kochia” value (Kochia (Kochia scoparia) [14]; [18]) was 0 and the “Kochia plant response rating (0 to 100 scale, 0 is no effect, 100 is complete control)” value (Kochia (Kochia scoparia) [14]; Preemergence) was 70. For the same compound, the “Plant response rating, Ragweed” value [15, 18] was 0 and the “Ragweed plant response rating (0 to 100 scale, 0 is no effect, 100 is complete control)” value ([15]; Preemergence) was 0.

`COC(=O)c1ccccc1NC(=O)C1C(=O)NCC1c1ccc(F)c(F)c1` (stereo not drawn) [Compound 417] was tested, and the “Ryegrass, Italian plant response rating” value [1, 19] was 0, the “Plant response rating, Ryegrass, Italian” value [1, 20] was 0 and the “Foxtail, Giant plant response rating” value [2, 19] was 0. For the same compound, the “Plant response rating, Foxtail, Giant” value [2, 20] was 0, the “Galium plant response rating” value [3, 19] was 0 and the “Plant response rating, Galium” value [3, 20] was 0. For the same compound, the “Pigweed plant response rating” value [4, 19] was 0, the “Plant response rating, Pigweed” value [4, 20] was 0 and the “Blackgrass plant response rating” value ([5]; 125 g ai/ha, postemergence) was 0. For the same compound, the “Plant response rating, Blackgrass” value [5, 20] was 0, the “Barnyardgrass plant response rating” value ([6]; 125 g ai/ha, postemergence) was 0 and the “Plant response rating, Barnyardgrass” value [6, 20] was 0. For the same compound, the “Wheat plant response rating” value [7, 19] was 0, the “Plant response rating, Wheat” value [7, 20] was 0 and the “Kochia plant response rating” value (Kochia (Kochia scoparia) [8]; [19]) was 0. For the same compound, the “Plant response rating, Kochia” value (Kochia (Kochia scoparia) [8]; [20]) was 0, the “Corn plant response rating” value (corn (Zea mays); [19]) was 0 and the “Plant response rating, Corn” value (corn (Zea mays); [20]) was 0. For the same compound, the “Ragweed plant response rating” value [9, 19] was 0, the “Plant response rating, Ragweed” value [9, 20] was 0 and the “Plant response rating, Ryegrass, Italian” value [10, 21] was 0. For the same compound, the “Ryegrass, Italian plant response rating (0 to 100 scale, 0 is no effect, 100 is complete control)” value ([10]; Preemergence) was 0, the “Plant response rating, Foxtail, Giant” value [11, 21] was 0 and the “Foxtail, Giant plant response rating (0 to 100 scale, 0 is no effect, 100 is complete control)” value ([11]; Preemergence) was 0. For the same compound, the “Plant response rating, Pigweed” value [12, 21] was 0, the “Pigweed plant response rating (0 to 100 scale, 0 is no effect, 100 is complete control)” value ([12]; Preemergence) was 0 and the “Plant response rating, Barnyardgrass” value [13, 21] was 0. For the same compound, the “Barnyardgrass plant response rating (0 to 100 scale, 0 is no effect, 100 is complete control)” value ([13]; Preemergence) was 0, the “Plant response rating, Kochia” value (Kochia (Kochia scoparia) [14]; [21]) was 0 and the “Kochia plant response rating (0 to 100 scale, 0 is no effect, 100 is complete control)” value (Kochia (Kochia scoparia) [14]; Preemergence) was 0. For the same compound, the “Plant response rating, Ragweed” value [15, 21] was 0 and the “Ragweed plant response rating (0 to 100 scale, 0 is no effect, 100 is complete control)” value ([15]; Preemergence) was 0.

In the case of `O=C(Nc1ccccc1F)C1C(=O)N(CC=CBr)CC1c1cccc(C(F)(F)F)c1` (stereo not drawn) [Compound 526], the “Plant response rating, Ryegrass, Italian” value [1, 16] is reported as 0, the “Plant response rating, Ryegrass, Italian” value [1, 17] is reported as 0 and the “Plant response rating, Foxtail, Giant” value [2, 16] is reported as 20. For the same compound, the “Plant response rating, Foxtail, Giant” value [2, 17] was 40, the “Plant response rating, Galium” value [3, 16] was 0 and the “Plant response rating, Galium” value [3, 17] was 0. The “Plant response rating, Pigweed” value [4, 16] was 0, the “Plant response rating, Pigweed” value [4, 17] was 0 and the “Blackgrass plant response rating” value ([5]; 125 g ai/ha, postemergence) was 0. The “Plant response rating, Blackgrass” value [5, 17] was 0, the “Barnyardgrass plant response rating” value ([6]; 125 g ai/ha, postemergence) was 10 and the “Plant response rating, Barnyardgrass” value [6, 17] was 20. The “Plant response rating, Wheat” value [7, 16] was 0, the “Plant response rating, Wheat” value [7, 17] was 0 and the “Plant response rating, Kochia” value (Kochia (Kochia scoparia) [8]; [16]) was 0. The “Plant response rating, Kochia” value (Kochia (Kochia scoparia) [8]; [17]) was 0, the “Plant response rating, Corn” value (corn (Zea mays); [16]) was 0 and the “Plant response rating, Corn” value (corn (Zea mays); [17]) was 0. For the same compound, the “Plant response rating, Ragweed” value [9, 16] was 0, the “Plant response rating, Ragweed” value [9, 17] was 0 and the “Plant response rating, Ryegrass, Italian” value [10, 18] was 0. For the same compound, the “Ryegrass, Italian plant response rating (0 to 100 scale, 0 is no effect, 100 is complete control)” value ([10]; Preemergence) was 0, the “Plant response rating, Foxtail, Giant” value [11, 18] was 70 and the “Foxtail, Giant plant response rating (0 to 100 scale, 0 is no effect, 100 is complete control)” value ([11]; Preemergence) was 80. For the same compound, the “Plant response rating, Pigweed” value [12, 18] was 0, the “Pigweed plant response rating (0 to 100 scale, 0 is no effect, 100 is complete control)” value ([12]; Preemergence) was 0 and the “Plant response rating, Barnyardgrass” value [13, 18] was 0. For the same compound, the “Barnyardgrass plant response rating (0 to 100 scale, 0 is no effect, 100 is complete control)” value ([13]; Preemergence) was 20, the “Plant response rating, Kochia” value (Kochia (Kochia scoparia) [14]; [18]) was 0 and the “Kochia plant response rating (0 to 100 scale, 0 is no effect, 100 is complete control)” value (Kochia (Kochia scoparia) [14]; Preemergence) was 0. The “Plant response rating, Ragweed” value [15, 18] was 0 and the “Ragweed plant response rating (0 to 100 scale, 0 is no effect, 100 is complete control)” value ([15]; Preemergence) was 0.
